Assays:
[1] = Competitive inhibition of rabbit liver guanase assessed as guanine hydrolysis rate by Lineweaver-Burk plot method; parameters: species or system Oryctolagus cuniculus
[2] = target: T1, Guanine deaminase (Homo sapiens, UniProt Q9Y2T3); assay: Inhibition of guanase
T1 sequence (Q9Y2T3 whole entry): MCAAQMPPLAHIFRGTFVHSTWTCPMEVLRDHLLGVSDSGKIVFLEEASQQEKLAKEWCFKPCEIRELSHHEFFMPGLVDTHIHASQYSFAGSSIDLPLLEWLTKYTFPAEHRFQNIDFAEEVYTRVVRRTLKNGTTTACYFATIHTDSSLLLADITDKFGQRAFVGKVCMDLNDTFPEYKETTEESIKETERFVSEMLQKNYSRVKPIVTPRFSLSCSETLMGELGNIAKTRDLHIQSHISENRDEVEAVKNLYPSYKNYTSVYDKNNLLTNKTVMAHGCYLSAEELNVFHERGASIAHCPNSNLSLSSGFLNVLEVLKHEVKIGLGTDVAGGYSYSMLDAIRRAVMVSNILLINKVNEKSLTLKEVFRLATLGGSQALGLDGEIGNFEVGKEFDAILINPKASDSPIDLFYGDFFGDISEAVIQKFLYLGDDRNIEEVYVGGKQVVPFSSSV

Row | Ki [1] | IC50 [2] | SMILES
1 | 119 µM | – | O=C1N[C@@H](O)CNc2c1ncn2[C@@H]1O[C@H](CO)[C@@H](O)[C@H]1O
2 | 129 µM | – | O=C1N[C@H](O)CNc2c1ncn2[C@@H]1O[C@H](CO)[C@@H](O)[C@H]1O
3 | 2.5 µM | 5 µM | O=C1NC(O)CNc2nc[nH]c21 (racemic) [AZEPINOMYCIN]

From ChEMBL document CHEMBL2202998, “Investigations into specificity of azepinomycin for inhibition of guanase: discrimination between the natural heterocyclic inhibitor and its synthetic nucleoside analogues” (Bioorg Med Chem Lett, 2012)
